Test results taken from patent US20230339937A1, “CONDENSED RING COMPOUNDS THAT INHIBIT H-PGDS” (SATO PHARMACEUTICAL CO., LTD., priority 2020, published 2023).

Target: T1, Recombinant human H-PGDS (Homo sapiens, UniProt O60760)
T1 construct: made in house; host or cells: E. coli
Test: H-PGDS inhibitory activity (prostaglandin D2 production from prostaglandin H2, measured by LC-MS/MS)
Assay type: biochemical
Conditions: recombinant human H-PGDS 1.0 nM expressed in E. coli; prostaglandin H2 25 μM; preincubated 15 minutes on ice, reacted on ice for 1 minute; concentration that inhibits prostaglandin D2 production by 50%
Summary of the method: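 Recombinant human H-PGDS (E. coli-expressed, 1.0 nM final) preincubated with compound 15 min on ice in 20 mM Tris-HCl pH 8.0, 2 mM MgCl2, 2 mM GSH, 0.5 mg/mL γ-globulin. Reaction with 25 µM PGH2 run 1 min on ice, stopped with FeCl2/citric acid, PGD2 quantified by LC-MS/MS. Activity expressed as % of DMSO control after subtracting non-enzymatic PGD2.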

T1 sequence (O60760 whole entry): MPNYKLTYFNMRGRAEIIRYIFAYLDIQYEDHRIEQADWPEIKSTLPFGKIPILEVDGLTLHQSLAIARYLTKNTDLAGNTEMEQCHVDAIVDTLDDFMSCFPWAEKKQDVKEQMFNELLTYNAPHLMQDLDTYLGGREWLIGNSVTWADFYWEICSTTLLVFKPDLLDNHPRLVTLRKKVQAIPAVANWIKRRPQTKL

Row | IC50 [nM] | SMILES
1 | 3.4 | O=C(Nc1cccc(F)c1)c1ccc(-c2nccc3occc23)cc1 [Example 112, N-(3-fluorophenyl)-4-(furo[3,2-c]pyridin-4-yl)benzamide]
2 | 6.4 | O=C(N[C@H]1C[C@H](O)C1)c1ccc(-c2nccc3occc23)cc1 [Example 270, 4-(furo[3,2-c]pyridin-4-yl)-N-(trans-3-hydroxycyclobutyl)benzamide]
3 | 1.1 | O=C(NC1CCN(c2ccccc2)CC1)c1ccc(-c2nccc3occc23)cc1 [Example 115, 4-(furo[3,2-c]pyridin-4-yl)-N-(1-phenylpiperidin-4-yl)benzamide]
4 | 1.2 | O=C(NC1CCN(c2nncs2)CC1)c1ccc(-c2nccc3occc23)cc1 [Example 237, N-[1-(1,3,4-thiadiazol-2-yl)piperidin-4-yl]-4-(furo[3,2-c]pyridin-4-yl)benzamide]
